Here are results for two compounds from patent US6214846A, “Substituted 3-(benzylamino)piperidine derivatives and their use as therapeutic agents” (Merck Sharp & Dohme Limited, priority 1997, dated 2001).

pIC50: −log10 of the molar value. Structures can show the parent of a compound that is named as a salt.

This test deals with human NK1 receptor (Homo sapiens, UniProt P25103). In words: IC50 at the human NK1 receptor (methods of pages 36 to 39 of WO 93/01165). It counts as binding. Particulars: test method of WO 93/01165. The method, then:
The exemplified compounds of this invention were tested by the methods set out at pages 36 to 39 of International Patent Specification No. WO 93/01165.

As a reminder, the pIC50 is −log10 of the IC50, conventionally taken in molar units.

human NK1 receptor, sequence (P25103 whole entry): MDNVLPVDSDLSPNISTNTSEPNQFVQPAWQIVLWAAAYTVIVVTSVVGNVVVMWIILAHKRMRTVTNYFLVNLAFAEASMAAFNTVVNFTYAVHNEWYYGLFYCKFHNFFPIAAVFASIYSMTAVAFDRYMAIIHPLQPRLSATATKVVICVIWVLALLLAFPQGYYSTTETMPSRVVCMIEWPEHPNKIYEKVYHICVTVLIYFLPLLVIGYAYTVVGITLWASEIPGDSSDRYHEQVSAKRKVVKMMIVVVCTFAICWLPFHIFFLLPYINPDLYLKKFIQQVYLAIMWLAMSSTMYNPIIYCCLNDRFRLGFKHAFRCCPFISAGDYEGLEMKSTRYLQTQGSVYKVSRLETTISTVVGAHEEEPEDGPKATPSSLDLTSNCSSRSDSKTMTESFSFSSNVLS

As to `Fc1ccc([C@@H]2NCCC[C@@H]2NCc2cc(OC(F)(F)F)ccc2OC2CC2)cc1` (relative stereo) [Example 3, (±)-(2R3R,2S3S)-N-{[2-Cyclopropoxy-5-(trifluoromethoxy)phenyl]methyl}-2-(4-fluorophenyl)piperidin-3-amine Dihydrochloride], the pIC50 is 9.70.

With `FC(F)(F)Oc1ccc(OC2CC2)c(CN[C@H]2CCCN[C@H]2c2ccccc2)c1` (relative stereo) [Example 1, (±)-(2R3R,2S3S)-N-{[2-Cyclopropoxy-5-(trifluoromethoxy)phenyl]methyl}-2-phenylpiperidin-3-amine Dihydrochloride], the negative logarithm of the IC50 (pIC50) was 9.77.
